In ChEMBL document CHEMBL1151757, “Synthesis, radiosynthesis, and biological evaluation of fluorine-18-labeled 2beta-carbo(fluoroalkoxy)-3beta-(3'-((Z)-2-haloethenyl)phenyl)nortropanes: candidate radioligands for in vivo imaging of the serotonin transporter with positron emission tomography” (J Med Chem, 2008):

Columns and labels:
[1] = Ratio of drug uptake in medulla to cerebellum in anesthetized cynomolgus monkey after 85 mins postinjection; format: ADME, organism-based, Macaca fascicularis; conditions: in vivo
[2] = Drug uptake in anesthetized cynomolgus monkey brain frontal lobe after 45 mins postinjection; format: ADME, organism-based, Macaca fascicularis; conditions: in vivo, 0.75 h
[3] = Drug uptake in anesthetized cynomolgus monkey brain frontal lobe after 225 mins postinjection; format: ADME, organism-based, Macaca fascicularis; conditions: in vivo, 3.75 h
[4] = Drug uptake in anesthetized cynomolgus monkey brain frontal lobe after 235 mins postinjection; format: ADME, organism-based, Macaca fascicularis; conditions: in vivo
[5] = Ratio of drug uptake in occipital lobe to cerebellum in anesthetized cynomolgus monkey after 115 mins postinjection; format: ADME, organism-based, Macaca fascicularis; conditions: in vivo
Putamen [6] = assay: Drug uptake in anesthetized cynomolgus monkey brain putamen after 115 mins postinjection; format: ADME, organism-based, Macaca fascicularis; parameters: unit not given here; conditions: in vivo
Putamen [7] = assay: Drug uptake in anesthetized cynomolgus monkey brain putamen after 125 mins postinjection; format: ADME, organism-based, Macaca fascicularis; conditions: in vivo
Putamen [8] = assay: Drug uptake in anesthetized cynomolgus monkey brain putamen after 165 mins postinjection; format: ADME, organism-based, Macaca fascicularis; conditions: in vivo, 2.75 h
Putamen [9] = assay: Drug uptake in anesthetized cynomolgus monkey brain putamen after 197.5 mins postinjection; format: ADME, organism-based, Macaca fascicularis; conditions: in vivo
Putamen [10] = assay: Drug uptake in anesthetized cynomolgus monkey brain putamen after 207.5 mins postinjection; format: ADME, organism-based, Macaca fascicularis; conditions: in vivo
[11] = Drug uptake in awake rhesus monkey brain frontal lobe after 25 mins postinjection; format: ADME, organism-based, Macaca mulatta; conditions: in vivo
[12] = Drug uptake in awake rhesus monkey brain frontal lobe after 105 mins postinjection; format: ADME, organism-based, Macaca mulatta; conditions: in vivo, 1.75 h
[13] = Drug uptake in awake rhesus monkey brain medulla after 7.5 mins postinjection; format: ADME, organism-based, Macaca mulatta; conditions: in vivo, 0.125 h
Midbrain [14] = assay: Drug uptake in anesthetized cynomolgus monkey brain midbrain after 182.5 mins postinjection; format: ADME, organism-based, Macaca fascicularis; conditions: in vivo
Pons [15] = assay: Drug uptake in anesthetized cynomolgus monkey brain pons after 3.5 mins postinjection; format: ADME, organism-based, Macaca fascicularis; conditions: in vivo
Pons [16] = assay: Drug uptake in anesthetized cynomolgus monkey brain pons after 12.5 mins postinjection; format: ADME, organism-based, Macaca fascicularis; conditions: in vivo
[17] = Drug uptake in awake rhesus monkey brain medulla after 95 mins postinjection; format: ADME, organism-based, Macaca mulatta; conditions: in vivo
Pons [18] = assay: Drug uptake in anesthetized cynomolgus monkey brain pons after 22.5 mins postinjection; format: ADME, organism-based, Macaca fascicularis; conditions: in vivo, 0.375 h
[19] = Drug uptake in awake rhesus monkey brain pons after 25 mins postinjection; format: ADME, organism-based, Macaca mulatta; conditions: in vivo
[20] = Drug uptake in awake rhesus monkey brain pons after 65 mins postinjection; format: ADME, organism-based, Macaca mulatta; conditions: in vivo
[21] = Drug uptake in awake rhesus monkey brain midbrain after 25 mins postinjection; format: ADME, organism-based, Macaca mulatta; conditions: in vivo
[22] = Drug uptake in awake rhesus monkey brain midbrain after 105 mins postinjection; format: ADME, organism-based, Macaca mulatta; conditions: in vivo, 1.75 h
Pons [23] = assay: Drug uptake in anesthetized cynomolgus monkey brain pons after 145 mins postinjection; format: ADME, organism-based, Macaca fascicularis; conditions: in vivo
Pons [24] = assay: Drug uptake in anesthetized cynomolgus monkey brain pons after 192.5 mins postinjection; format: ADME, organism-based, Macaca fascicularis; conditions: in vivo
Medulla [25] = assay: Drug uptake in anesthetized cynomolgus monkey brain medulla after 18.5 mins postinjection; format: ADME, organism-based, Macaca fascicularis; conditions: in vivo
Medulla [26] = assay: Drug uptake in anesthetized cynomolgus monkey brain medulla after 35 mins postinjection; format: ADME, organism-based, Macaca fascicularis; conditions: in vivo
[27] = Ratio of drug uptake in putamen to cerebellum in awake rhesus monkey after 45 mins postinjection; format: ADME, organism-based, Macaca mulatta; conditions: in vivo, 0.75 h
[28] = Ratio of drug uptake in caudate to cerebellum in awake rhesus monkey after 25 mins postinjection; format: ADME, organism-based, Macaca mulatta; conditions: in vivo
Medulla [29] = assay: Drug uptake in anesthetized cynomolgus monkey brain medulla after 125 mins postinjection; format: ADME, organism-based, Macaca fascicularis; conditions: in vivo
Medulla [30] = assay: Drug uptake in anesthetized cynomolgus monkey brain medulla after 155 mins postinjection; format: ADME, organism-based, Macaca fascicularis; conditions: in vivo
Medulla [31] = assay: Drug uptake in anesthetized cynomolgus monkey brain medulla after 182.5 mins postinjection; format: ADME, organism-based, Macaca fascicularis; conditions: in vivo
[32] = Ratio of drug uptake in putamen to cerebellum in anesthetized cynomolgus monkey after 155 mins postinjection; format: ADME, organism-based, Macaca fascicularis; conditions: in vivo
[33] = Drug uptake in anesthetized cynomolgus monkey brain cerebellum after 192.5 mins postinjection; format: ADME, organism-based, Macaca fascicularis; conditions: in vivo
[34] = Ratio of drug uptake in midbrain to cerebellum in awake rhesus monkey after 7.5 mins postinjection; format: ADME, organism-based, Macaca mulatta; conditions: in vivo, 0.125 h
[35] = Ratio of drug uptake in thalamus to cerebellum in awake rhesus monkey after 105 mins postinjection; format: ADME, organism-based, Macaca mulatta; conditions: in vivo, 1.75 h
Caudate [36] = assay: Drug uptake in anesthetized cynomolgus monkey brain caudate after 0.5 mins postinjection; format: ADME, organism-based, Macaca fascicularis, Caudate nucleus; conditions: in vivo
Caudate [37] = assay: Drug uptake in anesthetized cynomolgus monkey brain caudate after 4.5 mins postinjection; format: ADME, organism-based, Macaca fascicularis, Caudate nucleus; conditions: in vivo, 0.075 h
Caudate [38] = assay: Drug uptake in anesthetized cynomolgus monkey brain caudate after 125 mins postinjection; format: ADME, organism-based, Macaca fascicularis, Caudate nucleus; conditions: in vivo
Caudate [39] = assay: Drug uptake in anesthetized cynomolgus monkey brain caudate after 175 mins postinjection; format: ADME, organism-based, Macaca fascicularis, Caudate nucleus; conditions: in vivo
[40] = Drug uptake in awake rhesus monkey brain cerebellum after 45 mins postinjection; format: ADME, organism-based, Macaca mulatta; conditions: in vivo, 0.75 h
[41] = Ratio of drug uptake in occipital lobe to cerebellum in anesthetized cynomolgus monkey after 12.5 mins postinjection; format: ADME, organism-based, Macaca fascicularis; conditions: in vivo
Putamen [42] = assay: Drug uptake in anesthetized cynomolgus monkey brain putamen after 45 mins postinjection; format: ADME, organism-based, Macaca fascicularis; parameters: unit not given here; conditions: in vivo, 0.75 h
Thalamus [43] = assay: Drug uptake in anesthetized cynomolgus monkey brain thalamus after 95 mins postinjection; format: ADME, organism-based, Macaca fascicularis; parameters: unit not given here; conditions: in vivo
Thalamus [44] = assay: Drug uptake in anesthetized cynomolgus monkey brain thalamus after 155 mins postinjection; format: ADME, organism-based, Macaca fascicularis; parameters: unit not given here; conditions: in vivo
Thalamus [45] = assay: Drug uptake in anesthetized cynomolgus monkey brain thalamus after 175 mins postinjection; format: ADME, organism-based, Macaca fascicularis; parameters: unit not given here; conditions: in vivo
Thalamus [46] = assay: Drug uptake in anesthetized cynomolgus monkey brain thalamus after 197.5 mins postinjection; format: ADME, organism-based, Macaca fascicularis; conditions: in vivo
Midbrain [47] = assay: Drug uptake in anesthetized cynomolgus monkey brain midbrain after 4.5 mins postinjection; format: ADME, organism-based, Macaca fascicularis; parameters: unit not given here; conditions: in vivo, 0.075 h
Midbrain [48] = assay: Drug uptake in anesthetized cynomolgus monkey brain midbrain after 6.5 mins postinjection; format: ADME, organism-based, Macaca fascicularis; parameters: unit not given here; conditions: in vivo
Midbrain [49] = assay: Drug uptake in anesthetized cynomolgus monkey brain midbrain after 65 mins postinjection; format: ADME, organism-based, Macaca fascicularis; parameters: unit not given here; conditions: in vivo
Midbrain [50] = assay: Drug uptake in anesthetized cynomolgus monkey brain midbrain after 125 mins postinjection; format: ADME, organism-based, Macaca fascicularis; parameters: unit not given here; conditions: in vivo

Compound: O=C(OCC[18F])C1C2CCC(CC1c1cccc(/C=C\I)c1)N2 (stereo not given)
- Ratio [1]: 1.3
- Drug uptake [2]: 2.95
- Drug uptake [3]: 1.45
- Drug uptake [4]: 1.39
- Ratio [5]: 0.9
- Drug uptake (Putamen [6]): 3.74
- Drug uptake (Putamen [7]): 3.58
- Drug uptake (Putamen [8]): 3.02
- Drug uptake (Putamen [9]): 2.63
- Drug uptake (Putamen [10]): 2.58
- Drug uptake [11]: 0.11
- Drug uptake [12]: 0.1
- Drug uptake [13]: 0.07
- Drug uptake (Midbrain [14]): 3.4
- Drug uptake (Pons [15]): 0.77
- Drug uptake (Pons [16]): 2.58
- Drug uptake [17]: 0.11
- Drug uptake (Pons [18]): 3.05
- Drug uptake [19]: 0.12
- Drug uptake [20]: 0.14
- Drug uptake [21]: 0.13
- Drug uptake [22]: 0.15
- Drug uptake (Pons [23]): 2.57
- Drug uptake (Pons [24]): 2.14
- Drug uptake (Medulla [25]): 3.61
- Drug uptake (Medulla [26]): 4.05
- Ratio [27]: 1.5
- Ratio [28]: 1.2
- Drug uptake (Medulla [29]): 3.27
- Drug uptake (Medulla [30]): 2.98
- Drug uptake (Medulla [31]): 2.68
- Ratio [32]: 1.8
- Drug uptake [33]: 1.49
- Ratio [34]: 1.1
- Ratio [35]: 1.7
- Drug uptake (Caudate [36]): 0
- Drug uptake (Caudate [37]): 1.23
- Drug uptake (Caudate [38]): 3
- Drug uptake (Caudate [39]): 2.43
- Drug uptake [40]: 0.12
- Ratio [41]: 0.7
- Drug uptake (Putamen [42]): 4.41
- Drug uptake (Thalamus [43]): 3.91
- Drug uptake (Thalamus [44]): 3.03
- Drug uptake (Thalamus [45]): 2.76
- Drug uptake (Thalamus [46]): 2.46
- Drug uptake (Midbrain [47]): 1.87
- Drug uptake (Midbrain [48]): 2.99
- Drug uptake (Midbrain [49]): 4.91
- Drug uptake (Midbrain [50]): 4.08
